# Data reported in patent US7592360B2, “3-fluoro-piperidines as NMDA/NR2B antagonists” (Merck & Co., Inc., priority 2003, dated 2009).
# Structures can show the parent of a compound that is named as a salt.
row,melting point,SMILES
1,127 to 128 °C,"O=C([C@@H]1C[C@H]1c1ccccc1)N1CC[C@H](CNc2ncccn2)[C@H](F)C1 (as salt: hydrochloride) [Example 5, (3S,4R)-N-[(3-cis-fluoro-1-{[(1R,2R)-2-phenylcyclopropyl]carbonyl}piperidin-4-yl)methyl]pyrimidin-2-amine]"
2,115 to 117 °C,"Cc1ccc(COC(=O)N2CC[C@@H](CNc3nncs3)[C@@H](F)C2)cc1 (stereo in doubt) (as salt: hydrochloride) [Example 6, (−)-cis-4-methylbenzyl 3-fluoro-4-[(1,3,4-thiadiazol-2-ylamino)methyl]piperidine-1-carboxylate]"
3,93 to 95 °C,"Cc1ccc(COC(=O)N2CC[C@@H](CNc3nncs3)[C@H](F)C2)cc1 [Example 7, (+)-trans-4-methylbenzyl 3-fluoro-4-[(1,3,4-thiadiazol-2-ylamino)methyl]piperidine-1-carboxylate]"
